Results from patent publication US7205298B2, “Substituted triazine kinase inhibitors” (Janssen Pharmaceutica N.V., priority 2002, dated 2007).
One block for each molecule: values may come before it.

Key:
EGF-R1 = target: T1, EGF-R1 (Homo sapiens, UniProt P00533); test: Kinase selectivity assay EGF-R1; format: biochemical
T1 construct: purified from human A431 cell membranes; purchased Sigma E3641; host or cells: human A431 cell membranes (endogenous protein)
Method: Assays to test compound inhibition of other kinases were preformed using methods that measure the amount of phosphorylation of a biotinylated peptide substrate. Biotinylated peptide substrates were selected from the literature as appropriate for the enzyme being evaluated. […] Assay conditions vary slightly for each protein kinase, for example, insulin receptor kinase requires 10 mM MnCl2 for activity and Calmodulin-dependent protein kinase requires calmodulin and 2 mM CaCl2. The reaction mixture was dispensed into the wells of a streptavidin coated Flashplate and 1 μL test compound in 100% DMSO was added to a 100 μL reaction volume resulting in a final concentration of 1% DMSO in the reaction. Enzyme was diluted in 50 mM Tris-HCl pH=8.0, 0.1% BSA and added to each well. The reaction was incubated for one hour at 30° C. in the presence of a test compound. After one hour the reaction mix was aspirated from the plate and the plate was washed with PBS containing 100 mM EDTA. The plate was read on a scintillation counter to determine ^33P-γ-ATP incorporated into the immobilized peptide substrate. Test compounds were assayed in duplicate at 8 concentrations (100 μM, 10 μM, 1 μM, 100 nM, 10 nM, 1 nM, 100 pM, 10 pM). A maximum and minimum signal for the assay was determined on each plate. […] Known inhibitor compounds appropriate for the kinase being assayed were also included on each plate. […]

A375 malignant melanoma = test: Inhibition of cell proliferation, 14C-thymidine incorporation, A375; format: cell-based; conditions: Homo sapiens, A-375
Method: The ability of a test compound to inhibit the proliferation of cell growth was determined by measuring incorporation of ^14C-labelled thymidine into newly synthesized DNA within the cells. This method was used on cell lines derived from carcinomas originating from several tissues such as HeLa cervical adenocarcinoma (American Type Culture Collection (ATCC), Virginia, Cat. #CCL-2), HCT-116 colon carcinoma (CCL-247), MDA-MB-231 (Xenogen Corp.), PC-3 prostate adenocarcinoma (ATCC CRL-1435) and A375 malignant melanoma (ATCC CRL-1619).
Using this method, the effect of a compound on cell growth of cells with many different phenotypes can be determined. Cells were trypsinized and counted and 3000–8000 cells were added to each well of a 96-well CytoStar tissue culture treated scintillating microplate (Amersham #RPNQ0160) in complete medium in a volume of 100 μl. Cells were incubated for 24 hours in complete medium at 37° C. in an atmosphere containing 5% CO2. 1 μL of test compound in 100% DMSO was then added to the wells of the plate. DMSO only was added to control wells. Cells were incubated for 24 more hours in complete medium at 37° C. in an atmosphere containing 5% CO2. […] The degree of methyl ^14C-thymidine incorporation was quantified on a Packard Top Count.

A375 melanoma xenograft = test: In vivo inhibition of tumor growth, tumor growth delay method; conditions: for MDS to 2.0 g ± SEM (n): A375; for animals survived at day 57: group of six mice; for survival increase: vs control groups
Method: The in vivo effect of a compound on the growth of human tumor cells can be evaluated by implanting human tumor cells originating from a variety of different tumor types (such as A375 human melanoma cells) into the hindflank of athymic mice and administering a test compound to the mice.
Female nude mice were implanted subcutaneously with 1 mm^3 A375 melanoma fragments in the flank. Tumors were monitored twice weekly and then daily as the neoplasms reached the desired size range (about 75 mg). […] Estimated tumor weight was calculated using the formula (where w=width and l=length in mm of an A375 melanoma tumor): […]
All treatments were initiated on Day 1 and the study was terminated on Day 57.
The tumor growth delay (TGD) method was used in this study. In the TGD method, each animal was euthanized when its A375 neoplasm reached a size of 2.0 g. Mean Day of Survival (MDS) values were calculated for all groups. The treatment-effected mean “increase in survival” of various groups were compared to each other and to the mean survival times of mice receiving vehicle. The MDS values calculated for each group, based on the calculated day of death of each mouse, is given by the formula:
Time to exceed endpoint (observed)=number of days it takes for each tumor to grow past the endpoint (cut-off) size. Once the tumor reaches the cut-off size, the animal is euthanized. • D2=day animal is euthanized. • D1=last day of caliper measurement before tumor reaches the endpoint. • Wt2=tumor weight (mg) on D2 • Wt1=tumor weight (mg) on D1 • Endpoint weight=predetermined “cut-off” tumor size for the model being used.
Animals were weighed twice weekly during the study. Mice were examined frequently for clinical signs of any adverse, drug-related side effects. Acceptable toxicity for cancer drugs in mice is defined by the NCI as no mean group weight loss of over 20% during the test, and not more than one toxic death among ten treated animals.

T1 sequence (P00533 25-1210): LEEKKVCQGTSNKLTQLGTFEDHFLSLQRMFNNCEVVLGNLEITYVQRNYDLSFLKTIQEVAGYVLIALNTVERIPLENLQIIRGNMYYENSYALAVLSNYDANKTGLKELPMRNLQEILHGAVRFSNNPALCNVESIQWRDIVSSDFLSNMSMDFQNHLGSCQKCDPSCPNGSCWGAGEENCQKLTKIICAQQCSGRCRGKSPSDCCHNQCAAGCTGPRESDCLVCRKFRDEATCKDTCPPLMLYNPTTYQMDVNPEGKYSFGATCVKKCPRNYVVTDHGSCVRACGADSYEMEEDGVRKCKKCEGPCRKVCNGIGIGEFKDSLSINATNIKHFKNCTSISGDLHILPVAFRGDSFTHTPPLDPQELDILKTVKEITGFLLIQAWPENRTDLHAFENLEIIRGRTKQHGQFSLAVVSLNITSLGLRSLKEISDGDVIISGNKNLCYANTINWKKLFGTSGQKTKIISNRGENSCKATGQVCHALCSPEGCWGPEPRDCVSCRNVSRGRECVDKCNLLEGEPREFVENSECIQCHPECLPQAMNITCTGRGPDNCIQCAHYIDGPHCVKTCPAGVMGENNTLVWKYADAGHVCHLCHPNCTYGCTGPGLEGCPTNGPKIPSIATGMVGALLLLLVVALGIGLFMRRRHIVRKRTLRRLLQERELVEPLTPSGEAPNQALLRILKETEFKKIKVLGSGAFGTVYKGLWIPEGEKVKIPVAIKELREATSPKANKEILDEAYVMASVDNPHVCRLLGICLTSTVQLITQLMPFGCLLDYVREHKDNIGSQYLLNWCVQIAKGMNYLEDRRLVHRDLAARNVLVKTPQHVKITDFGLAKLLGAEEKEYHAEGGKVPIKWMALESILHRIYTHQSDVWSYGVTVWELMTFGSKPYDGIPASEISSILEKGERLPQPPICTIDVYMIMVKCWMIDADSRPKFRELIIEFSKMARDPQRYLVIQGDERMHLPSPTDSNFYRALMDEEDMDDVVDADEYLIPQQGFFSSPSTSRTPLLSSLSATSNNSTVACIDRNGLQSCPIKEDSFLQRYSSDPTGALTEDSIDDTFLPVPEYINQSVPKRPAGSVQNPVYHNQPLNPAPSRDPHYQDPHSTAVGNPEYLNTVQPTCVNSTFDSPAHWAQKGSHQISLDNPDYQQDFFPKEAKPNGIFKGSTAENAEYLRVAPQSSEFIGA

- IC50 (EGF-R1): > 100000 nM
SMILES: OCCCNc1cncc(-c2ncnc(Nc3cccc(Cl)c3)n2)c1 [Compound 1, 3-((5-(4-((3-chlorophenyl)amino)-1,3,5-triazin-2-yl)-3-pyridinyl)amino)-1-propanol]

SMILES: OCCCNc1cc(-c2ncnc(Nc3cccc(Cl)c3)n2)ccn1 [Compound 2, 3-((4-(4-((3-chlorophenyl)amino)-1,3,5-triazin-2-yl)-2-pyridinyl)amino)-1-propanol]
- IC50 (A375 malignant melanoma): 80 nM
- surviving longer than the PEG vehicle control and Growth Control groups (A375 melanoma xenograft; 100 mg/kg): about 8 days
- Max % BW loss (day) (A375 melanoma xenograft; 100 mg/kg i.p. qd×32): −17.2% (33)
- MDS to 2.0 g ± SEM (n) (A375 melanoma xenograft; 100 mg/kg i.p. qd×32, female nude mice): 29.6 days
- MDS to 2.0 g ± SEM (n) (A375 melanoma xenograft; 100 mg/kg i.p. qd×32, female nude mice, listed as Cpd 2): 29.6 ± 3.1 (6) days
- animals survived at day 57 (A375 melanoma xenograft; 100 mg/kg): None
- survival increase (A375 melanoma xenograft; 100 mg/kg): about 37%
- surviving longer than the PEG vehicle control and Growth Control groups (A375 melanoma xenograft; 125 mg/kg): about 14 days
- Max % BW loss (day) (A375 melanoma xenograft; 125 mg/kg i.p. qd×32): −18.8% (29)
- MDS to 2.0 g ± SEM (n) (A375 melanoma xenograft; 125 mg/kg i.p. qd×32, female nude mice): 35.2 days
- MDS to 2.0 g ± SEM (n) (A375 melanoma xenograft; 125 mg/kg i.p. qd×32, female nude mice, listed as Cpd 2): 35.2 ± 3.6 (5) days
- animals survived at day 57 (A375 melanoma xenograft; 125 mg/kg): One out of six
- survival increase (A375 melanoma xenograft; 125 mg/kg): about 63%
- surviving longer than the PEG vehicle control and Growth Control groups (A375 melanoma xenograft; 150 mg/kg): about 12 days
- Max % BW loss (day) (A375 melanoma xenograft; 150 mg/kg i.p. qd×32): −17.6% (33)
- MDS to 2.0 g ± SEM (n) (A375 melanoma xenograft; 150 mg/kg i.p. qd×32, female nude mice): 33.6 days
- MDS to 2.0 g ± SEM (n) (A375 melanoma xenograft; 150 mg/kg i.p. qd×32, female nude mice, listed as Cpd 2): 33.6 ± 3.0 (4) days
- animals survived at day 57 (A375 melanoma xenograft; 150 mg/kg): One out of six
- survival increase (A375 melanoma xenograft; 150 mg/kg): about 55%
- NCI definition for acceptable toxicity of a cancer drug in mice (A375 melanoma xenograft; 150 and 125 mg/kg dose groups, no mean group weight loss over 20%, not more than one toxic death among ten): satisfied the NCI definition for acceptable toxicity
- efficacy against the A375 melanoma xenograft (A375 melanoma xenograft; high doses of 150 and 125 mg/kg compared): approximately equivalent efficacy
